We go through two molecules from patent EP1759703A1, “IMMUNISTIMULATIVE AND INTERFERONOGENOUS AGENT” (Akciju Sabiedriba "Olainfarm", priority 2004, dated 2006).

Structures are written as SMILES. Structures can show the parent of a compound that is named as a salt. Where two headings read alike, the source gives them in different places.

Data set [1] in a line: Solubility (qualitative). The data set is classed as physicochemical.
Data set [2] deals with natural killers (NK-cells). Put plainly: NK-cell functional activity test (lysis of K-562 target cells, fluorescent tag). The following applies: Homo sapiens, ratio of treated to untreated NK-cells activity, read-out: Relative value of change of NK-activity over DMAAM compounds. It counts as cell-based. An excerpt:
Immunostimulating activity. Determination of the effect of claimed compounds on functional activity of immunocomptent human cells.
Immunocompetent cells - natural killers (NK-cells) - relate to the system of natural human body resistance. Identification of the status of this immune system link gives important information about the state of the body immune status. To assess the state of this immune system link depending on the presence of studied compounds a functional test was used to determine the NK-cells capacity to expose to lysis the target cells of tumor myeloblast culture K-562, the identification of which was implemented using a fluorescent tag. NK-cells activity was identified in accordance with the number of the target cells K-562 "killed" by them which were evaluated based on the intensity of fluorescent glowing in the area characteristic for killed cells and against control results (i.e. when NK-cells are absent).
The influence level of the studied drugs on NK-cells activity was assessed based on the value of the NK-cells activity ratio when treated with these medications to the activity of untreated NK-cells in the lysis process of target cells of the test culture, line K-562.
To select medication doses and concentrations while studying their activity, their minimal toxic dose against target cells and mononuclear cells of peripheral blood was preliminarily measured.
This defines a considerable immunostimulating effect of offered substances.
In addition immunostimulating effect mainly occurs in polymeric compounds (PVASA - DMAAM, VA - VASA - DMAAM, VP - VASA - DMAAM), and with an increase of drug concentration their stimulating impact on NK-cells activity enhances. Table 1. Change of NK-cells activity over 3.5-dimethyl-1-adamantylamine.

Data set [3] relates to white mice of both sexes, line "Balb". Put plainly: Acute toxicity, single oral administration, mice. It counts as in vivo. The protocol: The toxicity level of claimed compounds was assessed according to a general index of acute toxicity - average fatal dose of LD50. The study was held with a single oral administration of the medication to white mice of both sexes, line "Balb", weight 18 - 20 g, and to white rats, line "Vistar", weight 130 - 250 g (female) and 225 - 370 g (male). The medications were administered to mice in the dose ranging from 25 to 1100 mg/kg, and to rats in the range of 480 - 2315 mg/kg.

The test system of data set [4] is mononuclear cells of peripheral blood (NK-cells). It counts as cell-based, human. The following applies: IU of interferon antiviral activity as regards the virus of vesicular stomatitis.

`CC12CC3CC(C)(C1)CC(N)(C3)C2` [3.5-dimethyl-1-adamantylamine]: in data set [1], the solubility in water result is on record as “insoluble in water”.

By LD50 is commonly meant the dose expected to kill half of the subjects tested. Lower therefore signals greater toxicity. `CC12CC3CC(C)(C1)CC(N)(C3)C2` [HC - DMAAM, hydrochloride 3.5-dimethyl-1-adamantylamine]: the fold induction at 2 µg/mL in data set [2] (K562, concentration 2 mcg/ml (as calculated per DMAAM)) is 1. Also, in data set [2] (K562, concentration 10 mcg/ml (as calculated per DMAAM)), the fold induction at 10 µg/mL was 1.2. In data set [2] (K562, concentration 50 mcg/ml (as calculated per DMAAM)), the fold induction at 50 µg/mL was 1.6. For the same molecule, in data set [3], the LD50 turned out to be 363 mg/kg. In addition, the results for the “Interferon induction activity of NK-cells” value in data set [4] (concentration 2 mcg/ml (as calculated per DMAAM)), in data set [4] (concentration 10 mcg/ml (as calculated per DMAAM)) and in data set [4] (concentration 50 mcg/ml (as calculated per DMAAM)) were 5.77 IU/ml, 13.00 IU/ml and 14.46 IU/ml, respectively.
